Experimental data as given in patent EP0226508A1, “Indolo[3,2-c]quinoline derivatives, process for their preparation and their anti-tumour activity” (priority 1985, dated 1987).
Where two headings read alike, the source gives them in different places.

Columns and labels:
mélanome B 16 = test: In vivo antitumour activity, B 16 melanoma test; parameters: species or system souris hybrides BDF₁; conditions: for Jour médian de survie / T/C % / Nombre de survivants: B 16 melanoma; for Nombre de survivants: survivors at J 60; for Variation pondérale en g: in vivo, ip
Text: (§1) L'activité antitumorale a été testée in vivo sur différentes tumeurs selon le protocole général suivant:
(§2) Toutes les souris mâles ou femelles sont inoculées par voie intrapéritonéale au jour Jo avec une quantité déterminée de cellules tumorales viables, variable selon la tumeur.
(§3) Elles sont ensuite réparties en différents lots. Chaque lot correspondant aux animaux traités par le produit à tester à une dose déterminée est composé de 10 souris. Dans ce cas, le produit à tester est dissous dans l'eau distillée et il est administré, pendant n jours (J₁-Jn) variables selon le protocole choisi, par voie intrapéritonéale à raison de 0,1 ml par 10 g de poids des souris traitées, les doses du produit administré étant précisées dans les tableaux ci-dessous.
(§4) Le lot "contrôle négatif", correspondant aux animaux qui ne sont pas traités par un produit, comprend 2 √N animaux, N étant égal au nombre total de souris traitées par un produit.
(§5) Enfin, tous les essais sont conduits parallèlement à l'étude d'un lot appelé "contrôle positif" de 10 animaux qui est traité par une molécule active, variable selon le protocole choisi, dans les mêmes conditions que les lots traités par le produit à tester, afin de valider l'essai.
(§6) L'activité antitumorale est évaluée en considé-rant l'augmentation du temps de survie des animaux traités par rapport à celui des animaux du lot "contrôle négatif" selon la formule : [formula]
(§7) Le produit est également considéré comme toxique lorsque la variation pondérale, exprimée en grammes et calculée par la formule : Poids moyen du lot mesuré au jour 5 -poids moyen du même lot au jour 1 est égale ou inférieure à - 4 g.
Les essais sont effectués avec des souris hybrides BDF₁ inoculées avec 0,5 ml d'un homogénat de mélanome B 16 réalisé à partir de 1 g de tumeur dans 10 ml de sérum physiologique. Le composé à tester est administré pendant 9 jours (J₁-J₉).Le contrôle positif du test est le Cis-Platine administré dans les mêmes conditions. Le nombre d'animaux survivants est évalué au jour J 60.

leucémie L 1210 = test: In vivo antitumour activity, L 1210 leukemia test; parameters: species or system souris hybrides CDF₁; conditions: L 1210, CDF₁ mice; for Nombre de survivants: survivors at J 30
Text: as §1, §2, §3, §4, §5, §6
as §7, with “Un composé est considéré comme étant actif lorsque la valeur du rapport T/C est égale ou supérieure à 125 % selon le protocole retenu. Il est toxique lorsque cette valeur est égale ou inférieure à 85 %. Le” for “Le”
b) Test de la leucémie L 1210 (GERAN et al., Cancer Chemother, 1972, 2, 07-57).
Les essais sont effectués avec des souris hybrides CDF₁ inoculées avec 10⁵ cellules leucémiques de la lignée L 1210. Le composé à tester est administré pendant 5 jours (J₁-J₅).Le contrôle positif du test est le 5-fluorouracile administré dans les mêmes conditions. Le nombre d'animaux survivants est évalué au jour J 30. Un composé est considéré comme étant actif lorsque le rapport T/C est supérieur ou égal à 125 %.

[1] = test system: souris consanguines DBA₂ saines; test: Acute toxicity, single intraperitoneal injection in healthy mice, mortality at day 7; assay type: in vivo; conditions: single i.p. injection, 50 mg/kg
[2] = test system: lignée tumorale leucémie L 1210; test: In vitro cytotoxic activity on L 1210 leukemia cell culture (inhibition of cell proliferation); assay type: cell-based; conditions: L 1210 culture in exponential growth, 37°C, after 48 hours of contact, read-out: ID 50 (the source's name)
Procedure: 1) In vitro : (PAOLETTI et al., Chem. Biol. Interaction, 1979, 25, 45-58).
L'activité cytotoxique des composés de l'invention a été évaluée par des essais in vitro. Ces essais consistent à ajouter des concentrations croissantes du composé à tester à une culture cellulaire de la lignée tumorale leucémie L 1210 en phase exponentielle de croissance. Les cellules sont incubées à 37°C dans une étuve à CO₂ et comptées toutes les 24 heures. Le calcul de l'ID₅₀ (concentration du produit exprimée en micromole 1⁻¹ qui inhibe la prolifération cellulaire à 50 p. 100) est effectuée après 48 heures de contact. Ainsi déterminées les ID₅₀ des composés de l'invention sont rassemblées dans le tableau ci-après.

leucémie P 388 = test: animal or person; assay type: in vivo, souris hybrides CDF 1; conditions: for Nombre de survivants: survivors at J 40; for Variation pondérale en g: in vivo, ip
Text: as §1, §2, §3, §4, §5, §6
as §7, with “Un composé est considéré comme étant actif lorsque la valeur du rapport T/C est égale ou supérieure à 125 % selon le protocole retenu. Il est toxique lorsque cette valeur est égale ou inférieure à 85 %. Le” for “Le”
a) Test de la leucémie P 388 (GERAN et al., Cancer Chemother, 1972, 2, 07-57).
Les essais sont effectués avec des souris hybrides CDF 1 inoculées par voie intrapéritonéale avec 10⁶ cellules leucémiques de la lignée P 388. Le composé à tester est administré pendant 5 jours (J1-J5). Le contrôle positif du test est le 5-fluorouracile qui est administré dans les mêmes conditions. Le nombre d'animaux survivants est évalué au jour J 40. Un composé est considéré comme étant actif lorsque le rapport T/C est supérieur à 127 %.

[3] = BDF₁ mice, 2,5 mg/kg i.p. J1-J9
[4] = Mus musculus, P388, ip, P 388, CDF 1 mice, 5 mg/kg i.p. J1-J5, read-out: T/C %
[5] = Mus musculus, P388, ip, P 388, CDF 1 mice, 10 mg/kg i.p. J1-J5, read-out: T/C %
[6] = Mus musculus, P388, ip, P 388, CDF 1 mice, 20 mg/kg i.p. J1-J5, read-out: T/C %
[7] = P 388, CDF 1 mice, 5 mg/kg i.p. J1-J5
[8] = P 388, CDF 1 mice, 10 mg/kg i.p. J1-J5
[9] = P 388, CDF 1 mice, 20 mg/kg i.p. J1-J5
[10] = Mus musculus, P388, ip, P 388, CDF 1 mice, 2,5 mg/kg i.p. J1-J5, read-out: T/C %
[11] = P 388, CDF 1 mice, 2,5 mg/kg i.p. J1-J5

| Molecule | Jour médian de survie (leucémie L 1210; 5 mg/kg i.p. J1-J5) | T/C % (leucémie L 1210; 5 mg/kg i.p. J1-J5) | Nombre de survivants (leucémie L 1210; 5 mg/kg i.p. J1-J5) | Jour médian de survie (leucémie L 1210; 10 mg/kg i.p. J1-J5) | T/C % (leucémie L 1210; 10 mg/kg i.p. J1-J5) | Nombre de survivants (leucémie L 1210; 10 mg/kg i.p. J1-J5) | mortalité évaluée au septième jour après l'administration [1] | IC50 ([2]; Mus musculus, L1210) | response vs control in vivo at 5 mg/kg (leucémie P 388; [4]) | response vs control in vivo at 10 mg/kg (leucémie P 388; [5]) | response vs control in vivo at 20 mg/kg (leucémie P 388; [6]) | Nombre de survivants (leucémie P 388; [7]) | Nombre de survivants (leucémie P 388; [8]) | Nombre de survivants (leucémie P 388; [9]) | Variation pondérale en g (leucémie P 388; 5 mg/kg) | Variation pondérale en g (leucémie P 388; 10 mg/kg) | Variation pondérale en g (leucémie P 388; 20 mg/kg) | response vs control in vivo at 2.5 mg/kg (leucémie P 388; [10]) | Nombre de survivants (leucémie P 388; [11]) | other results |
| --- | --- | --- | --- | --- | --- | --- | --- | --- | --- | --- | --- | --- | --- | --- | --- | --- | --- | --- | --- | --- |
| CCN(CC)CCCNc1nc2ccccc2c2c1c1cc(O)ccc1n2C [Dérivé N°3] | 10,6 | 129% | 0 | 11,3 | 138% | 0 | aucune mortalité | 60 nM | 155% | 147% | 149% | 0 | 0 | 0 | + 1,0 g | - 0,6 g | - 2,2 g |  |  | Jour médian de survie (mélanome B 16; [3]): 36; T/C % (mélanome B 16; [3]): 138%; Nombre de survivants (mélanome B 16; [3]): 0 |
| CN(C)CCCNc1nc2ccccc2c2[nH]c3ccc(O)cc3c12 [Dérivé N°12, (diméthylamino-3 propylamino)-6 hydroxy-8 11-H indolo [3,2-c]quinoléine] |  |  |  |  |  |  | aucune mortalité | 80 nM | 155% | 141% |  | 0 | 0 |  | - 1,2 g | - 1,7 g |  | 141% | 0 | response vs control in vivo at 0.625 mg/kg (leucémie P 388; Mus musculus, P388, ip, P 388, CDF 1 mice, 0,625 mg/kg i.p. J1-J5, read-out: T/C %): 129%; response vs control in vivo at 1.25 mg/kg (leucémie P 388; Mus musculus, P388, ip, P 388, CDF 1 mice, 1,25 mg/kg i.p. J1-J5, read-out: T/C %): 130%; Nombre de survivants (leucémie P 388; P 388, CDF 1 mice, 0,625 mg/kg i.p. J1-J5): 0; Nombre de survivants (leucémie P 388; P 388, CDF 1 mice, 1,25 mg/kg i.p. J1-J5): 0 |
| Oc1ccc2[nH]c3c4ccccc4nc(NCCCN4CCOCC4)c3c2c1 [Dérivé N°15, hydroxy-8 (morpholino-3 propylamino)-6 11-H indolo[3,2-c]quinoléine] |  |  |  | 10,2 | 129% | 0 | aucune mortalité | 280 nM | 130% |  |  | 0 |  |  | - 1,1 g |  |  | 124% | 0 |  |
| Oc1ccc2[nH]c3c4ccccc4nc(NCCCN4CCCCC4)c3c2c1 [Dérivé N°16, hydroxy-8 (pipéridino-3 propylamino)-6 11-H indolo[3,2-c]quinoléine] | 10 | 126% | 0 | 10,4 | 131% | 0 | aucune mortalité | 180 nM | 133% | 130% | 77% |  | 0 | 0 | - 1,7 g | - 2,5 g | - 4,2 g | 140% | 0 | Jour médian de survie (leucémie L 1210; 20 mg/kg i.p. J1-J5): 10,2; T/C % (leucémie L 1210; 20 mg/kg i.p. J1-J5): 129%; Nombre de survivants (leucémie L 1210; 20 mg/kg i.p. J1-J5): 0 |
| (éthylamino-3 propylamino)-6 hydroxy-8 11-H indolo[3,2-c]quinoléine [Dérivé N°14] |  |  |  |  |  |  | aucune mortalité |  |  |  |  | 0 |  |  | + 1,7 g |  |  |  | 0 | Jour médian de survie (mélanome B 16; BDF₁ mice, 5 mg/kg i.p. J1-J9): 34,25; T/C % (mélanome B 16; BDF₁ mice, 5 mg/kg i.p. J1-J9): 123%; Jour médian de survie (mélanome B 16; BDF₁ mice, 20 mg/kg i.p. J1-J9): 38,75; T/C % (mélanome B 16; BDF₁ mice, 20 mg/kg i.p. J1-J9): 139%; Nombre de survivants (mélanome B 16; BDF₁ mice, 20 mg/kg i.p. J1-J9): 0; Variation pondérale en g (mélanome B 16; 5 mg/kg): - 0,2 g; Variation pondérale en g (mélanome B 16; 20 mg/kg): - 1,3 g; IC50 [2]: 1400 nM; Jour médian de survie (leucémie P 388; [7]): 14,0; T/C % (leucémie P 388; [7]): 127%; Jour médian de survie (leucémie P 388; [11]): 14,0; T/C % (leucémie P 388; [11]): 127% |
